Reference: the supplement of paper PMC10307832

Columns and labels:
Test in all cases: relative viability (nuclei count vs DMSO), 5 days (fraction); higher = more cells survive
PC-3 [JPC-3] = tested on: PC-3 [JPC-3]
Method in brief: (§1)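 Dosing by pin tool came one day after lung cancer cell lines were seeded in 1536-well plates, using either one drug or a fixed anchor-drug dose plus five library-drug doses (not always all listed) in √10 steps. After 5 days, nuclei were counted on 4× images. Relative viability is treated-well nuclei count divided by vehicle-well nuclei count, and values are medians of duplicate plates.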

PC-14 = tested on: PC-14
Method in brief: as §1

NCI-H1666 = tested on: NCI-H1666
Method in brief: as §1

NCI-H460 = tested on: NCI-H460
Method in brief: as §1

NCI-H2347 = tested on: NCI-H2347
Method in brief: as §1

SW 1573 = tested on: SW 1573
Method in brief: as §1

NCI-H2126 = tested on: NCI-H2126
Method in brief: as §1

NCI-H1975 = tested on: NCI-H1975
Method in brief: as §1

NCI-H647 = tested on: NCI-H647
Method in brief: as §1

LCLC-97TM1 = tested on: LCLC-97TM1
Method in brief: as §1

SK-LU-1 = tested on: SK-LU-1
Method in brief: as §1

NCI-H2170 = tested on: NCI-H2170
Method in brief: as §1

NCI-H1793 = tested on: NCI-H1793
Method in brief: as §1

NCI-H2009 = tested on: NCI-H2009
Method in brief: as §1

EMC-BAC-2 = tested on: EMC-BAC-2
Method in brief: as §1

ABC-1 = tested on: ABC-1
Method in brief: as §1

NCI-H1755 = tested on: NCI-H1755
Method in brief: as §1

NCI-H1355 = tested on: NCI-H1355
Method in brief: as §1

NCI-H1993 = tested on: NCI-H1993
Method in brief: as §1

NCI-H520 = tested on: NCI-H520
Method in brief: as §1

NCI-H727 = tested on: NCI-H727
Method in brief: as §1

NCI-H441 = tested on: NCI-H441
Method in brief: as §1

NCI-H1944 = tested on: NCI-H1944
Method in brief: as §1

Structure (SMILES): O=C(O)CCCCC(CCSCc1ccccc1)SCc1ccccc1 (centres undefined) [CPI-613] + O=C(c1cc(Cc2n[nH]c(=O)c3ccccc23)ccc1F)N1CCN(C(=O)C2CC2)CC1 [Olaparib] (partner 8 µM)
- relative viability (PC-3 [JPC-3]; first compound 5 µM): 1.11
- relative viability (PC-3 [JPC-3]; first compound 50 µM): 0.953
- relative viability (PC-3 [JPC-3]; first compound 158.11 µM): 0.32
- relative viability (PC-3 [JPC-3]; first compound 500 µM): 0.1
- relative viability (PC-14; first compound 5 µM): 0.283
- relative viability (PC-14; first compound 15.81 µM): 0.231
- relative viability (PC-14; first compound 50 µM): 0.262
- relative viability (PC-14; first compound 158.11 µM): 0.078
- relative viability (PC-14; first compound 500 µM): 0.0073
- relative viability (NCI-H1666; first compound 5 µM): 0.749
- relative viability (NCI-H1666; first compound 15.81 µM): 0.772
- relative viability (NCI-H1666; first compound 50 µM): 0.865
- relative viability (NCI-H1666; first compound 158.11 µM): 0.304
- relative viability (NCI-H1666; first compound 500 µM): 0.396
- relative viability (NCI-H460; first compound 5 µM): 0.37
- relative viability (NCI-H460; first compound 15.81 µM): 0.321
- relative viability (NCI-H460; first compound 50 µM): 0.373
- relative viability (NCI-H460; first compound 158.11 µM): 0.274
- relative viability (NCI-H460; first compound 500 µM): 0.361
- relative viability (NCI-H2347; first compound 5 µM): 0.535
- relative viability (NCI-H2347; first compound 15.81 µM): 0.505
- relative viability (NCI-H2347; first compound 50 µM): 0.562
- relative viability (NCI-H2347; first compound 158.11 µM): 0.495
- relative viability (NCI-H2347; first compound 500 µM): 0.349
- relative viability (SW 1573; first compound 5 µM): 0.442
- relative viability (SW 1573; first compound 15.81 µM): 0.395
- relative viability (SW 1573; first compound 50 µM): 0.406
- relative viability (SW 1573; first compound 158.11 µM): 0.135
- relative viability (SW 1573; first compound 500 µM): 0.071
- relative viability (NCI-H2126; first compound 5 µM): 0.904
- relative viability (NCI-H2126; first compound 15.81 µM): 1.07
- relative viability (NCI-H2126; first compound 50 µM): 0.845
- relative viability (NCI-H2126; first compound 158.11 µM): 0.757
- relative viability (NCI-H2126; first compound 500 µM): 0.128
- relative viability (NCI-H1975; first compound 5 µM): 0.745
- relative viability (NCI-H1975; first compound 15.81 µM): 0.758
- relative viability (NCI-H1975; first compound 50 µM): 0.85
- relative viability (NCI-H1975; first compound 158.11 µM): 0.563
- relative viability (NCI-H1975; first compound 500 µM): 0.099
- relative viability (NCI-H647; first compound 5 µM): 0.426
- relative viability (NCI-H647; first compound 15.81 µM): 0.528
- relative viability (NCI-H647; first compound 50 µM): 0.331
- relative viability (NCI-H647; first compound 158.11 µM): 0.0348
- relative viability (NCI-H647; first compound 500 µM): 0.0133
- relative viability (LCLC-97TM1; first compound 5 µM): 0.322
- relative viability (LCLC-97TM1; first compound 15.81 µM): 0.287
- relative viability (LCLC-97TM1; first compound 50 µM): 0.372
- relative viability (LCLC-97TM1; first compound 158.11 µM): 0.183
- relative viability (LCLC-97TM1; first compound 500 µM): 0.191
- relative viability (SK-LU-1; first compound 5 µM): 0.416
- relative viability (SK-LU-1; first compound 15.81 µM): 0.392
- relative viability (SK-LU-1; first compound 50 µM): 0.427
- relative viability (SK-LU-1; first compound 158.11 µM): 0.352
- relative viability (SK-LU-1; first compound 500 µM): 0.238
- relative viability (NCI-H2170; first compound 5 µM): 0.591
- relative viability (NCI-H2170; first compound 15.81 µM): 0.554
- relative viability (NCI-H2170; first compound 50 µM): 0.534
- relative viability (NCI-H2170; first compound 158.11 µM): 0.403
- relative viability (NCI-H2170; first compound 500 µM): 0.18
- relative viability (NCI-H1793; first compound 5 µM): 0.75
- relative viability (NCI-H1793; first compound 15.81 µM): 0.789
- relative viability (NCI-H1793; first compound 50 µM): 0.856
- relative viability (NCI-H1793; first compound 158.11 µM): 0.146
- relative viability (NCI-H1793; first compound 500 µM): 0.0648
- relative viability (NCI-H2009; first compound 5 µM): 0.703
- relative viability (NCI-H2009; first compound 15.81 µM): 0.707
- relative viability (NCI-H2009; first compound 50 µM): 0.67
- relative viability (NCI-H2009; first compound 158.11 µM): 0.109
- relative viability (NCI-H2009; first compound 500 µM): 0.0171
- relative viability (EMC-BAC-2; first compound 5 µM): 0.508
- relative viability (EMC-BAC-2; first compound 15.81 µM): 0.432
- relative viability (EMC-BAC-2; first compound 50 µM): 0.484
- relative viability (EMC-BAC-2; first compound 158.11 µM): 0.199
- relative viability (EMC-BAC-2; first compound 500 µM): 0.229
- relative viability (ABC-1; first compound 5 µM): 0.816
- relative viability (ABC-1; first compound 15.81 µM): 0.845
- relative viability (ABC-1; first compound 50 µM): 0.957
- relative viability (ABC-1; first compound 158.11 µM): 0.448
- relative viability (ABC-1; first compound 500 µM): 0.383
- relative viability (NCI-H1755; first compound 5 µM): 0.91
- relative viability (NCI-H1755; first compound 15.81 µM): 0.894
- relative viability (NCI-H1755; first compound 50 µM): 0.954
- relative viability (NCI-H1755; first compound 158.11 µM): 0.751
- relative viability (NCI-H1755; first compound 500 µM): 0.805
- relative viability (NCI-H1355; first compound 5 µM): 0.728
- relative viability (NCI-H1355; first compound 15.81 µM): 0.706
- relative viability (NCI-H1355; first compound 50 µM): 0.714
- relative viability (NCI-H1355; first compound 158.11 µM): 0.376
- relative viability (NCI-H1355; first compound 500 µM): 0.0737
- relative viability (NCI-H1993; first compound 5 µM): 1.15
- relative viability (NCI-H1993; first compound 15.81 µM): 0.918
- relative viability (NCI-H1993; first compound 50 µM): 0.908
- relative viability (NCI-H1993; first compound 158.11 µM): 0.6
- relative viability (NCI-H1993; first compound 500 µM): 0.421
- relative viability (NCI-H520; first compound 5 µM): 0.323
- relative viability (NCI-H520; first compound 15.81 µM): 0.371
- relative viability (NCI-H520; first compound 50 µM): 0.329
- relative viability (NCI-H520; first compound 158.11 µM): 0.136
- relative viability (NCI-H520; first compound 500 µM): 0.113
- relative viability (NCI-H727; first compound 5 µM): 0.783
- relative viability (NCI-H727; first compound 15.81 µM): 0.672
- relative viability (NCI-H727; first compound 50 µM): 0.631
- relative viability (NCI-H727; first compound 158.11 µM): 0.748
- relative viability (NCI-H727; first compound 500 µM): 0.678
- relative viability (NCI-H441; first compound 5 µM): 0.456
- relative viability (NCI-H441; first compound 15.81 µM): 0.483
- relative viability (NCI-H441; first compound 50 µM): 0.596
- relative viability (NCI-H441; first compound 158.11 µM): 0.109
- relative viability (NCI-H441; first compound 500 µM): 0.0239
- relative viability (NCI-H1944; first compound 5 µM): 0.404
- relative viability (NCI-H1944; first compound 15.81 µM): 0.401
- relative viability (NCI-H1944; first compound 50 µM): 0.491
- relative viability (NCI-H1944; first compound 158.11 µM): 0.288
- relative viability (NCI-H1944; first compound 500 µM): 0.383
